Assay results from patent US20250368666A1, “INDAZOLE COMPOUNDS” (TYRA BIOSCIENCES, INC., priority 2022, published 2025).

Key:
FGFR2 = molecular target: T1, FGFR2 (Homo sapiens, UniProt P21802); test: Kinase binding assay (kinase-tagged T7 phage, affinity beads, qPCR), Kd; conditions: read-out: FGFR2 (Kd nM)
T1 construct: made in house; host or cells: E. coli (BL21-derived), T7 phage
Outline: (§1)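 Readout was qPCR of kinase eluted from ligand-coated affinity beads after competition with test compound. Kinases were expressed as T7 phage fusions in E. coli. Binding constants were derived by non-linear least-squares Hill fitting, Hill slope −1.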

FGFR4 = molecular target: T2, FGFR4 (Homo sapiens, UniProt P22455); test: as above; conditions: read-out: FGFR4 (Kd nM)
T2 construct: made in house; host or cells: E. coli (BL21-derived), T7 phage
T2 sequence (P22455 22-802): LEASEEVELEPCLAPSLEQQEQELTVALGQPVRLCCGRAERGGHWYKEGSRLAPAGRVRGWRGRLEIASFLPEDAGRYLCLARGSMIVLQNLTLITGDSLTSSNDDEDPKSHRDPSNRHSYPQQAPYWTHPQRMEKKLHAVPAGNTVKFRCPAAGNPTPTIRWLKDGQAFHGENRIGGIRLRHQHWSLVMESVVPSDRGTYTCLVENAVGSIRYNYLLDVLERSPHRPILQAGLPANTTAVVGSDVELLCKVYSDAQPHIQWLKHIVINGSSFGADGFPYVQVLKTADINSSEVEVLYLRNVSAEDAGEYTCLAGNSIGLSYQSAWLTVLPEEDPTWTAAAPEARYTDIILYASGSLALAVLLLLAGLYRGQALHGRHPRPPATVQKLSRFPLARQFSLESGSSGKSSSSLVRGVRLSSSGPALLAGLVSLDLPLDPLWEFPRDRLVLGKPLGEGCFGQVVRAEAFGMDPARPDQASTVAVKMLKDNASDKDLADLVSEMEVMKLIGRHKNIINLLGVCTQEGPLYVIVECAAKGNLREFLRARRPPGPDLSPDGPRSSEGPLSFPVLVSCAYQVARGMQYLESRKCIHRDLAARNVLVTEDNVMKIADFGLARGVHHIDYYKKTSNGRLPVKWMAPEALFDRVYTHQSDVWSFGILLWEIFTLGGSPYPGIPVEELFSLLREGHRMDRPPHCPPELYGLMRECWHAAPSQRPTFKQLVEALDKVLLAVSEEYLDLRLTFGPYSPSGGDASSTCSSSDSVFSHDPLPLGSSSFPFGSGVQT
Outline: as §1

FGFR1 = molecular target: T3, FGFR1 (Homo sapiens, UniProt P11362); test: as above; conditions: read-out: FGFR1 (Kd nM)
T3 construct: made in house; host or cells: E. coli (BL21-derived), T7 phage
T3 sequence (P11362 22-822): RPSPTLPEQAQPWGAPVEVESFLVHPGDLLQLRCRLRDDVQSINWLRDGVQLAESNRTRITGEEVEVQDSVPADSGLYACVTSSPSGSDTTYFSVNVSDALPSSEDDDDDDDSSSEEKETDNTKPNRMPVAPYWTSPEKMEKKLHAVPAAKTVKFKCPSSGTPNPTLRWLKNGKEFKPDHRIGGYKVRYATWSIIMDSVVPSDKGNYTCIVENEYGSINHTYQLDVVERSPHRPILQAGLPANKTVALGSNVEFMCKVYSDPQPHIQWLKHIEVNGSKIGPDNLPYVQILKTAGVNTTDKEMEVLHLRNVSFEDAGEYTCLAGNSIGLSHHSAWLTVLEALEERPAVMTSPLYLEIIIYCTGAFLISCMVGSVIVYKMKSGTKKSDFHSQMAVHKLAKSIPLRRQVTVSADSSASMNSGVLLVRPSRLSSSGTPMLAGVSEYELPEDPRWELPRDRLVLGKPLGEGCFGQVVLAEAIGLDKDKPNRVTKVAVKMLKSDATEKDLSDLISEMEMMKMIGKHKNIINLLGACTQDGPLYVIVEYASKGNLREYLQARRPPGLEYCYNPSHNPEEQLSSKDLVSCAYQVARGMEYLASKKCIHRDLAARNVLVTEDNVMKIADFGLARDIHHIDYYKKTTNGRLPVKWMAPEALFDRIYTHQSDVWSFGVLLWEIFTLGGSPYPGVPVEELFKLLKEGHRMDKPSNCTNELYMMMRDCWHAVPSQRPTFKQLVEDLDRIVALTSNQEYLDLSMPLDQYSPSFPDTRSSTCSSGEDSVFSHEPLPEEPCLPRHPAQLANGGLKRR
Outline: as §1

FGFR3 = molecular target: T4, FGFR3 (Homo sapiens, UniProt P22607); test: as above; conditions: read-out: FGFR3 (Kd nM)
T4 construct: made in house; host or cells: E. coli (BL21-derived), T7 phage
T4 sequence (P22607 23-806): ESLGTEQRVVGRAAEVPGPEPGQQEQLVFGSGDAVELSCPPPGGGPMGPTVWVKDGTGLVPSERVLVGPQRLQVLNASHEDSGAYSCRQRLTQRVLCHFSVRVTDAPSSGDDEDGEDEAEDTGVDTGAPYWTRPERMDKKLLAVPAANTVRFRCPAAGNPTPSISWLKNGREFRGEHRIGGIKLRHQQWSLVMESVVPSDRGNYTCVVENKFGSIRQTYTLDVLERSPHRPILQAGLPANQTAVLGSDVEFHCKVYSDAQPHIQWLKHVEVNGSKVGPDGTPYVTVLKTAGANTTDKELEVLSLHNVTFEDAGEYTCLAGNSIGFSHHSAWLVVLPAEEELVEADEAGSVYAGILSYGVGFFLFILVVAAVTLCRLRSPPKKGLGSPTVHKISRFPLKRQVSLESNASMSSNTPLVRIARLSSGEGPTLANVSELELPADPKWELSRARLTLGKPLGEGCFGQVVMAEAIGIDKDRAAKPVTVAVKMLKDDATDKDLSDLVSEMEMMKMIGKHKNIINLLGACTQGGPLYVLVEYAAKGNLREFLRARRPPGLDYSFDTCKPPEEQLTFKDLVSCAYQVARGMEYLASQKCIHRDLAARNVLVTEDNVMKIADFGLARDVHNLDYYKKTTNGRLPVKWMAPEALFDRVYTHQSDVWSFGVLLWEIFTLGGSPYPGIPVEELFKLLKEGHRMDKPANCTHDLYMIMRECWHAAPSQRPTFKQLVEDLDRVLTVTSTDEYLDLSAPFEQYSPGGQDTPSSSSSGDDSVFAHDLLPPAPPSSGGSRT
Outline: as §1

[1] = tested on: HuH7 cell line (FGF19 amplification); test: Cancer cell line cell viability assay (Cell Titer-Glo), 120 hr; format: cell-based; conditions: Homo sapiens, Huh-7
Source text: Experimental Purpose: To detect the change of intracellular ATP by Cell Titer-Glo® and to evaluate the inhibitory effect of the compounds on cancer cell lines by determining the in vitro IC50 value of the compounds.
Cell Titer-Glo® 2.0 Luminescent cell viability assay reagent was purchased from Promega (Madison, WI). KG-1, KATO-III, and MDA-MB-453 cell lines were purchased from American Type Culture Collection (Manassas, VA). RT112/84 cell line was purchased from Millipore-Sigma (St. Louis, MO). HuH7 cells were purchased from Seikisui Xenotech (Kansas City, KS). RT112/84 and MDA-MB-453 cells were cultured in RPMI1640 media supplemented with 10% fetal bovine serum. KG-1 and KATO-III cell lines were cultured in IMDM media supplemented with 20% FBS. HuH7 cells were cultured in IMDM media supplemented with 10% FBS. Cultures were maintained at 37° C. in a humidified atmosphere of 5% CO2 and 95% air.
Cell Viability Assay Procedure: Cells were plated in 96-well clear bottom/white plates (Corning #3903) at a range of densities depending on the optimal assay window (5,000-20,000 cells/well in […] of media), incubated overnight. The next day, test compound DMSO stock solutions were made at 10 mM and […] final concentration. Compounds were then added to cells in a 9-dose, 4-fold dilution series starting at 3 μM with an HP 300e Digital Dispenser (each dose was applied in triplicate). DMSO was backfilled to each well up to 301 nL total volume of test compound+DMSO, and a total of 301 nL DMSO was added to a control/no test compound well in triplicate. The cells in cell culture plates were incubated with the compounds at 37° C. and 5% CO2 for 72 hours-120 hours depending on the cell line. Then 50 μl of Cell Titer Glo 2.0 reagent was added to each well of the cell culture plates. The contents were covered from light and mixed on an orbital shaker at room temperature for minimum of 10 min. Luminescence was recorded by a Clariostar Plus Microplate Reader (BMG Labtech, Cary, NC). Cells were assessed as a percentage of DMSO only treated control cells. Curves were plotted and IC50 values were calculated using the GraphPad Prism 9 program based on a sigmoidal dose-response equation (log (inhibitor) vs. response—Variable slope, 4-parameter).

[2] = tested on: KATO-III cell line (FGFR2 amplification); test: Cancer cell line cell viability assay (Cell Titer-Glo), 72 hr; format: cell-based; conditions: Homo sapiens, KATO III
Outline: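 Luminescent ATP read-out (Cell Titer-Glo 2.0) after compound exposure, normalised to DMSO-only wells. Dosing: 9 concentrations, 4-fold steps, top 3 μM, triplicates. IC50 derived by log(inhibitor) vs. response 4-parameter fit.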

[3] = tested on: RT112/84 cell line (FGFR3-fusion); test: as above; format: cell-based; conditions: Homo sapiens, RT112/84, RT112/84 cell line (FGFR3-fusion)
Outline: (§2)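 5,000-20,000 cells/well o/n; cpd 9-pt 4x dil from 3 μM, n=3; 37° C/5% CO2; CTG 2.0 lumi; % DMSO ctrl; 4PL IC50.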

[4] = tested on: KG-1 cell line (FGFR 1-fusion); test: as above; format: cell-based; conditions: Homo sapiens, KG-1, KG-1 cell line (FGFR1-fusion)
Outline: as §2

FGFR3 (V555M) = molecular target: T5, FGFR3 (V555M) (Homo sapiens, UniProt P22607, V555M); test: Kinase binding assay (kinase-tagged T7 phage, affinity beads, qPCR), Kd; conditions: V555M mutant; read-out: FGFR3 (V555M) (Kd nM)
T5 construct: made in house; host or cells: E. coli (BL21-derived), T7 phage
T5 sequence (P22607 23-806 V555M): as the sequence (P22607 23-806) above, with V533M counted along it
Outline: as §1

T1 sequence (P21802 22-821): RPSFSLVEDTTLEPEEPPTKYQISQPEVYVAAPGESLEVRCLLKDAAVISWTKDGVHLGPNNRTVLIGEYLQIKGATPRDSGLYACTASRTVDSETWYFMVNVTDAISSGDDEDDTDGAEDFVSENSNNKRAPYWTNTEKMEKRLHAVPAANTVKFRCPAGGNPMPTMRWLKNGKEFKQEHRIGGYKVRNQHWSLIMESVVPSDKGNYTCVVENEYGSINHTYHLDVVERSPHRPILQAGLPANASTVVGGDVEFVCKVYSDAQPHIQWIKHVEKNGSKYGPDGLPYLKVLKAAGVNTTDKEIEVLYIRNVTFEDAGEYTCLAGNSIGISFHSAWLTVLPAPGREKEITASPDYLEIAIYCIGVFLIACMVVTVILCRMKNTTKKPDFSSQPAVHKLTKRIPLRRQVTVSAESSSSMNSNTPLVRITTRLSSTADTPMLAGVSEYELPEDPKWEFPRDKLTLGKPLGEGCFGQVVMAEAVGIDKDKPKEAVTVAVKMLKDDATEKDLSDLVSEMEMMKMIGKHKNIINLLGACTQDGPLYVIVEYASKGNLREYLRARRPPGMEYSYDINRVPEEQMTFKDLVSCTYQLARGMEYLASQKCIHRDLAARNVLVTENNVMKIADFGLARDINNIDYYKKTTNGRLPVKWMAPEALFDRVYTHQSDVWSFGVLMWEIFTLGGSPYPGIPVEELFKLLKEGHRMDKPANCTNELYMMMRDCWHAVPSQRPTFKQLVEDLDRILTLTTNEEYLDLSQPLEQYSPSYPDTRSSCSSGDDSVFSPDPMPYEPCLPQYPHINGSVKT

| Compound | Kd (FGFR2) | Kd (FGFR4) | Kd (FGFR1) | Kd (FGFR3) | IC50 [1] | IC50 [2] | IC50 [3] | IC50 [4] | Kd (FGFR3 (V555M)) |
| --- | --- | --- | --- | --- | --- | --- | --- | --- | --- |
| COc1cc2[nH]nc(-c3cnc(N4CC(CC#N)(NCC5CC5)C4)c(C#N)c3)c2cc1O[C@H](C)c1c(Cl)cncc1Cl [Example 346, (R)-2-(3-(cyanomethyl)-3-((cyclo-propylmethyl)-amino)azetidin-1-yl)-5-(5-(1-(3,5-dichloropyridin-4-yl)ethoxy)-6-methoxy-1H-indazol-3-yl)nicotinonitrile] | 1 to 50 nM | 1 to 50 nM | 1 to 50 nM | 1 to 50 nM | 0.1 to 50 nM | 0.1 to 50 nM | 0.1 to 50 nM | 50 to 200 nM |  |
| COc1cc2[nH]nc(-c3cnc(N4CC(C)(NC(=O)CN(C)C)C4)c(C#N)c3)c2cc1O[C@H](C)c1c(Cl)cncc1Cl [Example 340, (R)-N-(1-(3-cyano-5-(5-(1-(3,5-dichloropyridin-4-yl)ethoxy)-6-methoxy-1H-indazol-3-yl)pyridin-2-yl)-3-methylazetidin-3-yl)-2-(dimethylamino)-acetamide] | 1 to 50 nM | 1 to 50 nM | 1 to 50 nM |  | 0.1 to 50 nM | 50 to 200 nM | 0.1 to 50 nM | 50 to 200 nM |  |
| CCN(CC)C1(C)CN(c2ncc(-c3n[nH]c4ccc(O[C@H](C)c5c(Cl)cncc5Cl)cc34)cc2C#N)C1 [Example 31, 5-[5-[(1R)-1-(3,5-dichloro-4-pyridyl)ethoxy]-1H-indazol-3-yl]-2-[3-(diethylamino)-3-methyl-azetidin-1-yl]pyridine-3-carbonitrile] | 50 to 300 nM | 1 to 50 nM | 1 to 50 nM | 1 to 50 nM | 50 to 200 nM |  |  |  | 1 to 50 nM |
| C[C@@H](Oc1cc2c(-c3cnc(N4CC(C)(NCCO)C4)c(C#N)c3)n[nH]c2cc1F)c1c(Cl)cncc1Cl [Example 129, (R)-5-(5-(1-(3,5-dichloropyridin-4-yl)ethoxy)-6-fluoro-1H-indazol-3-yl)-2-(3-((2-hydroxyethyl)amino)-3-methylazetidin-1-yl)nicotinonitrile] |  |  |  |  | 50 to 200 nM | 200 to 1000 nM | 50 to 200 nM | 200 to 1000 nM |  |
| COc1cc2[nH]nc(-c3cnc(N4CC5(CC5)C4)nc3)c2cc1O[C@H](C)c1c(Cl)cncc1Cl [Example 62, 3-[2-(5-azaspiro[2.3]hexan-5-yl)pyrimidin-5-yl]-5-[(1R)-1-(3,5-dichloro-4-pyridyl)ethoxy]-6-methoxy-1H-indazole] | 1 to 50 nM | 1 to 50 nM | 1 to 50 nM | 1 to 50 nM | 0.1 to 50 nM |  |  |  | 1 to 50 nM |
| COc1cc2[nH]nc(-c3cnc(N4CC(C)(NCC5CC5)C4)c(C#N)c3)c2cc1O[C@@H](C)c1c(Cl)cncc1Cl [Example 333, (S)-2-(3-((cyclopropyl-methyl)amino)-3-methylazetidin-1-yl)-5-(5-(1-(3,5-dichloropyridin-4-yl)ethoxy)-6-methoxy-1H-indazol-3-yl)nicotinonitrile] | > 1000 nM | 1 to 50 nM | 300 to 1000 nM | 50 to 300 nM | 200 to 1000 nM |  |  |  | 50 to 300 nM |
| COc1cc2[nH]nc(-c3cnc(N4C[C@H](CS(C)(=O)=O)[C@H]4C)c(C#N)c3)c2cc1O[C@@H](C)c1c(Cl)cncc1Cl [Example 335, 5-(5-((S)-1-(3,5-dichloropyridin-4-yl)ethoxy)-6-methoxy-1H-indazol-3-yl)-2-((2R,3S)-2-methyl-3-((meth-ylsulfonyl)meth-yl)azetidin-1-yl)nicotinonitrile] | > 1000 nM | 1 to 50 nM | > 1000 nM | 300 to 1000 nM | 200 to 1000 nM |  |  |  | 300 to 1000 nM |
| COc1cc2[nH]nc(-c3cnc(N4CC(C)(NCC(C)(C)O)C4)c(C#N)c3)c2cc1O[C@@H](C)c1c(Cl)cncc1Cl [Example 331, (S)-5-(5-(1-(3,5-dichloropyridin-4-yl)ethoxy)-6-methoxy-1H-indazol-3-yl)-2-(3-((2-hydroxy-2-methylpro-pyl)amino)-3-methylazetidin-1-yl)nicotinonitrile] | 300 to 1000 nM | 1 to 50 nM | 300 to 1000 nM | 50 to 300 nM | 200 to 1000 nM |  |  |  | 50 to 300 nM |
| C[C@@H](Oc1cc2c(-c3cnc(N4CC(C)(N5CCC5)C4)c(C#N)c3)n[nH]c2cc1F)c1c(Cl)cncc1Cl [Example 136, (R)-5-(5-(1-(3,5-dichloropyridin-4-yl)ethoxy)-6-fluoro-1H-indazol-3-yl)-2-(3′-methyl-[1,3′-biazetidin]-1′-yl)nicotinonitrile] | 1 to 50 nM | 1 to 50 nM | 1 to 50 nM | 1 to 50 nM | 50 to 200 nM |  |  |  | 1 to 50 nM |
| Cc1ncc(Cl)c([C@@H](C)Oc2ccc3[nH]nc(-c4cnc(N5CC(C)(N(C)C)C5)c(C#N)c4)c3c2)c1Cl [Example 45, 5-[5-[(1R)-1-(3,5-dichloro-2-methyl-4-pyridyl)ethoxy]-1H-indazol-3-yl]-2-[3-(dimethylamino)-3-methyl-azetidin-1-yl]pyridine-3-carbonitrile] | 50 to 300 nM | 1 to 50 nM | 50 to 300 nM | 1 to 50 nM | 50 to 200 nM |  |  |  | 1 to 50 nM |
| C[C@@H](Oc1cc2c(-c3cnc(N4CC(C)(N5CCOCC5)C4)c(C#N)c3)n[nH]c2cc1F)c1c(Cl)cncc1Cl [Example 124, (R)-5-(5-(1-(3,5-dichloropyridin-4-yl)ethoxy)-6-fluoro-1H-indazol-3-yl)-2-(3-methyl-3-morpholinoazetidin-1-yl)nicotinonitrile] | 50 to 300 nM | 1 to 50 nM | 50 to 300 nM | 1 to 50 nM | 50 to 200 nM |  |  |  | 1 to 50 nM |
| C[C@@H](Oc1ccc2[nH]nc(-c3cnc(N4CC(C)(CNS(C)(=O)=O)C4)c(C#N)c3)c2c1)c1c(Cl)cncc1Cl [Example 18, (R)-N-((1-(3-cyano-5-(5-(1-(3,5-dichloropyridin-4-yl)ethoxy)-1H-indazol-3-yl)pyridin-2-yl)-3-methylazetidin-3-yl)methyl)methane-sulfonamide] | 50 to 300 nM | 1 to 50 nM | 50 to 300 nM | 1 to 50 nM | 0.1 to 50 nM |  |  |  | 1 to 50 nM |
| CNC1(C)CN(c2ncc(-c3n[nH]c4ccc(O[C@H](C)c5c(Cl)cnc(C)c5Cl)cc34)cc2C#N)C1 [Example 32, 5-[5-[(1R)-1-(3,5-dichloro-2-methyl-4-pyridyl)ethoxy]-1H-indazol-3-yl]-2-[3-methyl-3-(methylamino)azetidin-1-yl]pyridine-3-carbonitrile] | 50 to 300 nM | 1 to 50 nM | 1 to 50 nM | 1 to 50 nM | 50 to 200 nM |  |  |  | 1 to 50 nM |
| C[C@@H](Oc1cc2c(-c3cnc(N4CC(C)(CN5CCOCC5)C4)c(C#N)c3)n[nH]c2cc1F)c1c(Cl)cncc1Cl [Example 137, (R)-5-(5-(1-(3,5-dichloropyridin-4-yl)ethoxy)-6-fluoro-1H-indazol-3-yl)-2-(3-methyl-3-(morpholinomethyl)aze-tidin-1-yl)nicotinonitrile] | 50 to 300 nM | 1 to 50 nM | 50 to 300 nM | 1 to 50 nM | 50 to 200 nM |  |  |  | 1 to 50 nM |
